Columns and labels:
[1] = tested on: NPY-induced feeding behavior; experiment: NPY-induced food intake in satiated rats; assay type: in vivo, rat; details: compound 30 mg/kg i.p. then 300 pmole NPY i.c.v., 4 hours, mean ± S.E.M.
Procedure: For these determinations food intake may be measured in normal satiated rats after intracerebroventricular application (i.c.v.) of NPY in the presence or absence of the test compound. Male Sprague Dawley rats (Ciba-Geigy AG, Sisseln, Switzerland) weighing between 180 g and 220 g are used for all experiments. The rats are individually housed in stainless steel cages and maintained on an 11:13 h light-dark cycle (lights off at 18:00 h) at a controlled temperature of 21-23° C. at all times. Water and food (NAFAG lab chow pellets NAFAG, Gossau, Switzerland) are available ad libidum.
Rats under pentobarbital anesthesia are stereotaxically implanted with a stainless steel guide cannula targeted at the right lateral ventricle. Stereotaxic coordinates, with the incisor bar set −2.0 mm below interaural line, are: −0.8 mm anterior and +1.3 mm lateral to bregma. The guide cannula is placed on the dura. Injection cannulas extend the guide cannulas −3.8 mm ventrally to the skull surface. Animals are allowed at least 4 days of recovery postoperatively before being used in the experiments. Cannula placement is checked postoperatively by testing all rats for their drinking response to a 50. ng intracerebroventricular (i.c.v.) injection of angiotensin II. Only rats which drink at least 2.5 ml of water within 30 min. after angiotensin II injection are used in the feeding studies.
All injections are made in the morning 2 hours after light onset. Peptides are injected in artificial cerebrospinal fluid (ACSF) in a volume of 5 μl. ACSF contains: NaCl 124 mM, KCl 3.75 mM, CaCl2 2.5 mM, MgSO4 2.0 mM, KH2PO4 0.22 mM, NaHCO3 26 mM and glucose 10 mM. Porcine-NPY (p-NPY) are dissolved in artificial cerebrospinal fluid (ACS). For i.c.v. injection the test compounds are preferably dissolved in DMSO/water (10%, v/v). The vehicle used for intraperitoneal (i.p.), subcutaneous (s.c.) or oral (p.o.) delivery of compounds is preferably water, physiological saline or DMSO/water (10% v/v), or cremophor/water (20% v/v), respectively.
Animals which are treated with both test compounds and porcine-NPY are treated first with the test compound.
Food intake may be measured by placing preweighed pellets into the cages at the time of NPY injection. Pellets are then removed from the cage subsequently at each selected time point and replaced with a new set of preweighed pellets. The food intake of animals treated with test compound may be calculated as a percentage of the food intake of control animals i.e., animals treated with vehicle. Alternatively, food intake for each group of animals subjected to a particular experimental condition may be expressed as the mean±S.E.M. Statistical analysis is performed by analysis of variance using the Student-Newman-Keuls test.
Food intake is reported as the mean±S.E.M. intake for a group of animals.

5HT1a = 5HT1a (Homo sapiens, UniProt P08908); experiment: Binding at cloned human 5HT1a receptor
5HT1a, sequence (P08908 whole entry): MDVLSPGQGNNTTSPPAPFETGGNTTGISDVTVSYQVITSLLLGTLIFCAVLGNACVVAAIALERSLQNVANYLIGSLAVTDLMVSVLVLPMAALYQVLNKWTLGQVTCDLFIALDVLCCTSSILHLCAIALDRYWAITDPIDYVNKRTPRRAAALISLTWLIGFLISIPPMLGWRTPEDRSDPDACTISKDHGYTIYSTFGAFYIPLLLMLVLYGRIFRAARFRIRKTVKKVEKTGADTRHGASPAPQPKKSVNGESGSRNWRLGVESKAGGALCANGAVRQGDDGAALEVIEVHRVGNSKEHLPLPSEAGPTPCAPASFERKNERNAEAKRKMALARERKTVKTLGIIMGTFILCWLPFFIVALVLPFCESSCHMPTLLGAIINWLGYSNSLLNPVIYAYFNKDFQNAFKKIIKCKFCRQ

D3 = target: T1, D3 (Homo sapiens, UniProt P35462); experiment: Binding at cloned human dopamine D3 receptor
T1 construct: expressed in transfected cells; host or cells: COS-7
T1 sequence (P35462 whole entry): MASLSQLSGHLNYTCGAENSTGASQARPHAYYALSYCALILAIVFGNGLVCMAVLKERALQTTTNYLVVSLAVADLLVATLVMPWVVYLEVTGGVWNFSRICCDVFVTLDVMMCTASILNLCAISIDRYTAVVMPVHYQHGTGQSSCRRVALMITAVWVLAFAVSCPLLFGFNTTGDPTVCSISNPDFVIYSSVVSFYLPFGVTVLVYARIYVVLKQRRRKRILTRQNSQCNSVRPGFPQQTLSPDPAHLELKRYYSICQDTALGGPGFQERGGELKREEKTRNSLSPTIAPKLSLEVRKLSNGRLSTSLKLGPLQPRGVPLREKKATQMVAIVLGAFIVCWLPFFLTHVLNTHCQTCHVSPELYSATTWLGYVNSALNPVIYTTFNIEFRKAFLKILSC

α2c = target: T2, α2c (Homo sapiens, UniProt P18825); experiment: Binding at cloned human α2c adrenergic receptor; details: cloned human receptor
T2 sequence (P18825 1-462): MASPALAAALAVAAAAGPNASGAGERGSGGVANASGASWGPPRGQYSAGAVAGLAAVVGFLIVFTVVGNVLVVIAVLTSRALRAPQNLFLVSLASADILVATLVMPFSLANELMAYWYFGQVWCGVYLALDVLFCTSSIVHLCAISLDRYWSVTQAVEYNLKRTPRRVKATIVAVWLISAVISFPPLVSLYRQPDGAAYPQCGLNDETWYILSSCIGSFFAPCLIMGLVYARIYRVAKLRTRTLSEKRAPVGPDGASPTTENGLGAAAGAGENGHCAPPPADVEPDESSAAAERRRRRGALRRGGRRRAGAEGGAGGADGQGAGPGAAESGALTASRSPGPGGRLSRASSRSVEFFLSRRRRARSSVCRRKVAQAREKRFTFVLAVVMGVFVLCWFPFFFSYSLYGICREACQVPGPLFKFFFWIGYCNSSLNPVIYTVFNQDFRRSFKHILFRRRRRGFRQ

Row | Structure (SMILES) | Food intake, NPY + compound [1] | pKi 5HT1a (5HT1a) | pKi D3 (D3) | pKi α2c (α2c)
1 | Cl.O=S(=O)(NC[C@H]1CC[C@H](CNCC2CCc3ccccc3C2)CC1)c1cccc2ccccc12 (mixture of isomers) [Compound 19] | 1.5 ± 0.6 g | 5.54 | 6.69 | 
2 | Cl.O=[N+]([O-])c1ccccc1S(=O)(=O)NC[C@H]1CC[C@H](CNCC2CCc3ccccc3C2)CC1 (mixture of isomers) [Compound 20] |  |  | 6.35 | 7.39
3 | Cl.Cl.Nc1ccccc1S(=O)(=O)NC[C@H]1CC[C@H](CNCC2CCc3ccccc3C2)CC1 (mixture of isomers) [Compound 22] |  | 6.56 |  | 7.15

— US6713265B1 (Synaptic Pharmaceutical Corporation, priority 1999, dated 2004)
